Results: patent US5871954A, “Fatty acid analog enzyme substrates” (Washington University, priority 1993, dated 1999)
Entries after “also recorded” stand apart in the source; their conditions may differ.

How the values were obtained:
wheat germ NMT = test: in vitro wheat germ NMT myristoylation assay, kinetics with iodinated peptide GNAAS[125I]YRR; format: biochemical
Experimental: Myristoyl CoA and fatty acid analog CoA were generated by incubation of the fatty acid or analog with CoA, ATP and CoA ligase. This reaction mixture was added to wheat germ NMT and Gly-Asn-Ala-Ala-Ser-[^125 I]Tyr-Arg-Arg in the presence of 0.03% Triton® X-100. Reaction products were characterized by reverse phase HPLC and gamma counting.
The invention is illustrated in greater detail in the following Examples 1 to 15 by the synthesis and testing of representative compounds of the invention as myristoylating enzyme substrates. Accordingly, the invention is first illustrated in Examples 1 to 5 by the chemical synthesis of a sulfur-containing analog of myristic acid, namely 11-(ethylthio)undecanoicacid, CH3 CH2 --S--(CH2)10 COOH, which is then tested in vitro as a wheat germ NMT substrate. Wheat germ NMT is a protein similar to yeast NMT. The purity and chemical identity of the synthesized compound were examined using ^1 H and ^13 C NMR as well as mass spectroscopy. The assay that was used to characterize the substrate specificity of wheat germ NMT measures the rate of attachment of a radiolabelled fatty acid to an unlabelled peptide. The fatty acid analog synthesized was nonradioactive.
The in vitro assay for NMT activity requires the enzymatic generation of fatty acyl CoA. Since the Pseudomonas acyl CoA ligase is quite nonspecific [Shimizo et al., Anal. Biochem. 107, 193-198 (1980)] and is used in excess, it should equally well convert myristic acid and 11-(ethylthio)undecanoic acid to the corresponding CoA esters. It is, therefore, believed that the data represent the relative catalytic efficiency of fatty acyl CoA and analog CoA for wheat germ NMT.
Assays for NMT activity were performed using a procedure detailed previously by Towler and Glaser, Proc. Natl. Acad. Sci. USA 83, 2812-2816 (1986). Briefly, the in vitro assay measures the transfer of radiolabelled fatty acid from acyl CoA to a synthetic peptide substrate. The acylpeptide product is identified by reverse phase HPLC. Time and enzyme dependence were evaluated by varying the reaction time or the enzyme concentration. […] Fatty acid specificity was examined essentially as described by Towler et al., J. Biol. Chem. 262, 1030-1036 (1987), except that the peptide Gly-Ser-Ser-Lys-Ser-Lys-Pro-Lys rather than Gly-Asn-Ala-Ala-Ala-Ala-Arg-Arg was used to compare palmitate and myristate utilization by wheat germ NMT. This was necessary because of the presence of a large, peptide-independent peak which co-eluted with a palmitoyl-Gly-Asn-Ala-Ala-Ala-Ala-Arg-Arg standard. [^3 H]Palmitate and [^3 H]myristate were used in this comparison. [^14 C]fatty acids were used to compare C-10, C-12 and C-14 chain lengths. Fatty acyl CoA concentrations in these assays were determined by a modification of the method of Hosaka et al., Methods Enzymol. 71, 325-333 (1981).
Gly-Asn-Ala-Ala-Ser-[^125 I]Tyr-Arg-Arg as prepared in Example 2, above, was tested in an in vitro myristoylation system which was modified from that used with radiolabelled fatty acids. […] 20-fold more wheat germ NMT (480-fold purified as in Example 3, above) was used for these assays than for assays which employed [^3 H] myristate. […] Double reciprocal plots were generated for the iodinated peptide with both myristic acid and the sulfur analog by altering the peptide concentration in the presence of a constant amount of fatty acid or analog. […] The assays contained 0.03% Triton X-100 to maintain the solubility of the fatty acids.

yeast NMT = biological target: T1, yeast NMT (Saccharomyces cerevisiae, UniProt P14743); test: in vitro yeast NMT assay, kinetics of fatty acid analog substrates with iodinated peptide GNAAS[125I]YRR; format: biochemical; conditions: for Peptide Vm / Acyl CoA Vm: Table 2, relative to myristate control 100%; for Peptide Vm: fatty acid analog at 15 μM; for Acyl CoA Vm: peptide at its Km
T1 construct: 11,000-fold purified preparation of yeast NMT; from tissue; host or cells: yeast
T1 sequence (P14743 1-455): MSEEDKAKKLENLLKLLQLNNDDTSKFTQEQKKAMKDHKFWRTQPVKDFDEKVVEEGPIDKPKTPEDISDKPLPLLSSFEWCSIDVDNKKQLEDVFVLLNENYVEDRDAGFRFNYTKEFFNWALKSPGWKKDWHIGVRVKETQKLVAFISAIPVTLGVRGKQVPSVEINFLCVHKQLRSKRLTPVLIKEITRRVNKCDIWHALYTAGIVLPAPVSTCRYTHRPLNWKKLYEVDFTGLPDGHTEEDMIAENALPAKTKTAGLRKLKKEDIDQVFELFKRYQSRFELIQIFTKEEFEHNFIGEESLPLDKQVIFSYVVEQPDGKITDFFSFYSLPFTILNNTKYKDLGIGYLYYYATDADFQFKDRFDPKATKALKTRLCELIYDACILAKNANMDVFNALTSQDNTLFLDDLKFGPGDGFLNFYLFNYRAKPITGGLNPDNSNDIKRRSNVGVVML
Source text: (§1) Similar results were obtained using an 11,000-fold purified preparation of yeast NMT [Towler et al., Proc. Natl. Acad. Sci. USA 84, 2708-2712 (1987)].
(§2) Other illustrative examples of the oxy- and thio-substituted fatty acid analog substrate compounds of the invention were synthesized in Examples 6 to 14 and tested in Example 15 as substrates for the yeast NMT.
(§3) For these Examples, each analog synthesized is characterized by ^1 H and 13C NMR as well as mass spectroscopy. The analogs are then characterized kinetically as NMT substrates. Briefly, fatty acid analogs are converted to their CoA esters with Pseudomonas CoA ligase and incubated with the iodinated peptide GNAAS[^125 I]YRR and a source of NMT. […] The radiolabelled peptide is then used at concentrations which will lead to 50% enzyme saturation (i.e., at its Km) for the determination of fatty acid analog kinetic characteristics. Representative analogs with sulfur or oxygen in the backbone of the fatty acid chain serve as good substrates for NMT in vitro and will compete for incorporation of ^3 H labelled myri-state into yeast proteins in vivo. In addition, these analogs differ markedly in hydrophobicity from myri-state as measured both by C18 reverse phase HPLC elution profiles and by 2-octanol/water partition coefficients. The analog CH3 O (CH2)11 COOH, for example, partitions into water 20 fold better than myristate. It is believed that these analogs will be incorporated into mammalian acylproteins in vivo and that their incorporation into these proteins will drastically alter protein processing or targeting. It is further believed that the incorporation of fatty acid analogs of both myristate and palmitate into ester linked and phosphatidyl inositol glycan linked acylproteins will also dramatically alter their properties. Since many viral proteins and oncogenes are acylated, these compounds represent a new class of potential antiviral and antineoplastic agents.

[1] = C18 reverse phase HPLC elution of acyl peptides (hydrophobicity); format: physicochemical; conditions: for Elution Time: Table 2, C18 reverse phase HPLC
Experimental: The fatty acid analog acyl-peptide eluted 7 minutes earlier than the corresponding myristoyl peptide. The free peptide elutes in the void volume (3-5 minutes).
This difference was evident when the HPLC elution characteristics of fatty acyl peptides were examined. The elution time of a particular acyl-peptide depends strongly on the peptide sequence as well as on the acyl chain attached to that peptide. For example, the elution times of fatty acyl derivatives of GNAAAARR are (in minutes) decanoic acid, 9; dodecanoic acid, 18; myristic acid, 24; and palmitic acid, 30. Elution times for fatty acyl derivatives of GNAAS[^125 I]YRR are 23 and 28 minutes for C12 and C14 fatty acids, respectively (FIG. 2). […] Such a change could alter the biological activity of myristoyl proteins.
as §3

[2] = biological target: T2, myristoyl CoA: protein N-myristoyl transferase (NMT) (Saccharomyces cerevisiae, UniProt P14743); test: substrate activity for myristoylating enzyme (general statement); format: biochemical; conditions: in words
T2 construct: CoA ester made in situ by Pseudomonas CoA ligase
T2 sequence (P14743 1-455): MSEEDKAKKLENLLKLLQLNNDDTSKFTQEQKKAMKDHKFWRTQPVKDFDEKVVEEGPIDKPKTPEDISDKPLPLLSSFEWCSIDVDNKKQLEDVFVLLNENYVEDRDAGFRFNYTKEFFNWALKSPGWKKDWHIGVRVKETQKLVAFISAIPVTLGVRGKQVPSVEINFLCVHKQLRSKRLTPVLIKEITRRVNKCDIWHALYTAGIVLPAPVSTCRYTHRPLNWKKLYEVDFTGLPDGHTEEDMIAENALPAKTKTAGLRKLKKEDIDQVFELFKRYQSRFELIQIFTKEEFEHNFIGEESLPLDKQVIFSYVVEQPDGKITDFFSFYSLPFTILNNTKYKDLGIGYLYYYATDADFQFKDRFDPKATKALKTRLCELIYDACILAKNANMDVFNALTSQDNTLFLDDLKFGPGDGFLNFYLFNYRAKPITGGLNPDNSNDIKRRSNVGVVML
Experimental: Purification and use of this enzyme are described, for example, by Towler et al., Proc. Natl. Acad. Sci. USA 84, 2708-2712 (1987); J. Biol. Chem. 262, 1030-1036 (1987).
as §3, with “It is further believed that the incorporation of fatty acid analogs of both myristate and palmitate into ester linked and phosphatidyl inositol glycan linked acylproteins will also dramatically alter their properties. Since many viral proteins and oncogenes are acylated, these compounds represent a new class of potential antiviral and antineoplastic agents.” left out

[3] = substrate: CCOCCCCCCCCCCC(=O)O; test: in vitro yeast NMT assay, kinetics of fatty acid analog substrates with iodinated peptide GNAAS[125I]YRR; format: biochemical; conditions: other: Table 2; peptide at its Km
Source text: as §1, §2, §3

[4] = substrate: CCCCCCCCCCCCCC(=O)O; test: as above; format: biochemical; conditions: other: Table 2; peptide at its Km
Source text: as §1, §2, §3

[5] = substrate: COCCCCCCCCCCCC(=O)O; test: as above; format: biochemical; conditions: other: Table 2; peptide at its Km
Source text: as §1, §2, §3

[6] = substrate: CCCCCCCCSCCCCC(=O)O; test: as above; format: biochemical; conditions: other: Table 2; peptide at its Km
Source text: as §1, §2, §3

[7] = substrate: CCCSCCCCCCCCCC(=O)O; test: as above; format: biochemical; conditions: other: Table 2; peptide at its Km
Source text: as §1, §2, §3

[8] = substrate: CCSCCCCCCCCCCC(=O)O; test: as above; format: biochemical; conditions: other: Table 2; peptide at its Km
Source text: as §1, §2, §3

[9] = substrate: CCCOCCCCCCCCCC(=O)O; test: as above; format: biochemical; conditions: other: Table 2; peptide at its Km
Source text: as §1, §2, §3

[10] = substrate: COCCCCCCCCCCC(=O)O; test: as above; format: biochemical; conditions: other: Table 2; peptide at its Km
Source text: as §1, §2, §3

[11] = substrate: CCCCCCCCOCCCCC(=O)O; test: as above; format: biochemical; conditions: other: Table 2; peptide at its Km
Source text: as §1, §2, §3

[12] = substrate: CCCCOCCCCCCCCCCC(=O)O; test: as above; format: biochemical; conditions: other: Table 2; peptide at its Km
Source text: as §1, §2, §3

[13] = substrate: C#CCOCCCCCCCCCC(=O)O; test: as above; format: biochemical; conditions: other: Table 2; peptide at its Km
Source text: as §1, §2, §3

[14] = iodinated peptide 40 μM, 0.03% Triton X-100, FIG. 1

Molecule: CCSCCCCCCCCCCC(=O)SCCNC(=O)CCNC(=O)[C@H](O)C(C)(C)COP(=O)(O)OP(=O)(O)OC[C@H]1O[C@@H](n2cnc3c(N)ncnc32)[C@H](O)[C@@H]1OP(=O)(O)O
- substrate quality vs myristoyl CoA (wheat germ NMT; wheat germ NMT): at least as good a substrate for wheat germ NMT as myristoyl CoA itself

Molecule: CCCCOCCCCCCCCCCC(=O)O [CH3 (CH2)3 O(CH2)10 COOH, 11-(1-Butoxy)undecanoic acid]
- Peptide Vm (yeast NMT): 25%
- Acyl CoA Vm (yeast NMT): 80%
- Elution Time [1]: 19 min
- effectiveness as substrate [2]: less effective than the analogs based on C13 -C14 fatty acids

Molecule: CCSCCCCCCCCCCC(=O)O [CH3 CH2 S(CH2)10 COOH, 11-(Ethylthio)undecanoic acid]
- Km and Vmax vs C14:0 fatty acid (yeast NMT; 11,000-fold purified yeast NMT): indistinguishable from that of the C14:0 fatty acid
- Peptide Vm (yeast NMT): 98%
- Acyl CoA Vm (yeast NMT): 130%
- effect on the kinetic characteristics of the peptide substrate (wheat germ NMT; in words, vs myristic acid): did not significantly alter the kinetic characteristics of the peptide substrate
- Km (as CoA ester), times higher than for myristate (wheat germ NMT; [14]): 1.5 times
- Vmax (as CoA ester), times higher than for myristate (wheat germ NMT; [14]): 3.5 times
- apparent maximal velocity, times higher than with myristic acid (wheat germ NMT; peptide substrate varied): 2.3 times
- Elution Time [1]: 18 min
- hydrophobicity ([1]; in words, vs myristic acid): decreases its hydrophobicity; also recorded: significantly different from that of myristic acid
- effectiveness as substrate [2]: leaves intact its ability to act as a substrate

B1: yeast NMT (Saccharomyces cerevisiae S288C) (protein)
chain: MSEEDKAKKLENLLKLLQLNNDDTSKFTQEQKKAMKDHKFWRTQPVKDFDEKVVEEGPIDKPKTPEDISDKPLPLLSSFEWCSIDVDNKKQLEDVFVLLNENYVEDRDAGFRFNYTKEFFNWALKSPGWKKDWHIGVRVKETQKLVAFISAIPVTLGVRGKQVPSVEINFLCVHKQLRSKRLTPVLIKEITRRVNKCDIWHALYTAGIVLPAPVSTCRYTHRPLNWKKLYEVDFTGLPDGHTEEDMIAENALPAKTKTAGLRKLKKEDIDQVFELFKRYQSRFELIQIFTKEEFEHNFIGEESLPLDKQVIFSYVVEQPDGKITDFFSFYSLPFTILNNTKYKDLGIGYLYYYATDADFQFKDRFDPKATKALKTRLCELIYDACILAKNANMDVFNALTSQDNTLFLDDLKFGPGDGFLNFYLFNYRAKPITGGLNPDNSNDIKRRSNVGVVML
notes: 11,000-fold purified preparation of yeast NMT; from tissue; host or cells: yeast
- Km [3]: 1.8 µM
- Km [4]: 0.6 µM
- Km [5]: 2 µM
- Km [6]: 1.5 µM
- Km [7]: 1.5 µM
- Km [8]: 1.4 µM
- Km [9]: 6.1 µM
- Km [10]: 6.9 µM
- Km [11]: 1.6 µM
- Km [12]: 1 µM
- Km [13]: 6.5 µM
